In ChEMBL document CHEMBL4354807, “Natural Product Albiziabioside A Conjugated with Pyruvate Dehydrogenase Kinase Inhibitor Dichloroacetate To Induce Apoptosis-Ferroptosis-M2-TAMs Polarization for Combined Cancer Therapy” (J Med Chem, 2019):
Activity calls are given as the source filed them. The rule behind the calls is not given here.

Columns and labels:
[1] = Toxicity in BALB/c nude mouse xenografted with human MCF7 cells assessed as effect on ALT level in blood at 2 mg/kg, iv administered every 2 days for 2 weeks measured after 14 days; assay type: organism-based; conditions: in vivo, 336 h
[2] = tested on: 4T1; experiment: Induction of M2-TAM polarization in mouse 4T1 cells assessed as decrease in MRC1 mRNA expression at 2 uM after 48 hrs by Western blot analysis relative to control; assay type: functional
[3] = tested on: MCF7; experiment: Induction of apoptosis in human MCF7 cells assessed as necrotic cells at 2 uM after 24 hrs by Annexin V-FITC/propidium iodide staining-based flow cytometric analysis (reference value: 0.10 %); assay type: functional
[4] = Selectivity index, ratio IC50 for cytotoxicity against human HBMEC cells assessed as reduction in cell viability after 72 hrs by MTT assay to IC50 for anticancer activity against mouse 4T1 cells assessed as reduction in cell viability after 72 hrs by MTT assay
[5] = target: [Pyruvate dehydrogenase (acetyl-transferring)] kinase isozyme 1, mitochondrial (Homo sapiens) (UniProt Q15118); experiment: Inhibition of PDK1 (unknown origin) in PBS buffer using PDK tide as substrate at pH 7.4 measured after 90 mins in presence of ATP by ADP-Glo luminescent kinase assay
[6] = tested on: MCF7; experiment: Synergistic anticancer activity against human MCF7 cells overexpressing assessed as combination index after 72 hrs by MTT assay; assay type: functional
[7] = tested on: MCF7; experiment: Induction of mitochondrial dysfunction in human MCF7 cells assessed as cell population with intact mitochondrial membrane potential at 2 uM after 24 hrs by JC1 staining-based FACScalibur flow cytometry analysis (reference value: 97%); assay type: functional
[8] = Toxicity in BALB/c nude mouse xenografted with human MCF7 cells assessed as effect on liver at 2 mg/kg, iv administered every 2 days for 2 weeks measured after 14 days by hematoxylin and eosin staining based histopathological analysis; assay type: organism-based; conditions: in vivo, 336 h
[9] = Toxicity in BALB/c nude mouse xenografted with human MCF7 cells assessed as effect on heart at 2 mg/kg, iv administered every 2 days for 2 weeks measured after 14 days by hematoxylin and eosin staining based histopathological analysis; assay type: organism-based; conditions: in vivo, 336 h
[10] = tested on: MCF7; experiment: Inhibition of glycolysis in human MCF7 cells assessed as reduction in intracellular lactate level at 2 uM after 6 hrs by microplate reader assay; assay type: functional, cell-based
[11] = tested on: MCF7; experiment: Induction of ferroptosis in human MCF7 cells assessed as cell death at 2 uM pretreated with antioxidant vitamin E followed by compound treatment by MTT assay; assay type: functional, cell-based

SMILES: CC1(C)CC[C@]2(C(=O)O)CC[C@]3(C)C(=CC[C@@H]4[C@@]5(C)CC[C@H](O[C@@H]6O[C@H](CO[C@@H]7OC[C@H](O)[C@H](O)[C@H]7O)[C@@H](O)[C@H](O)[C@H]6NC(=O)C(Cl)Cl)C(C)(C)[C@@H]5CC[C@]43C)[C@@H]2C1
- Activity [1]: Non-Toxic
- fold change (FC) [2]: 3.4
- Activity [3]: 4.86%
- Ratio IC50 [4]: 29.16
- inhibition [5]: inactive
- CI [6]: 0.03
- Activity [7]: 53.38%
- Activity [8]: Non-Toxic
- Activity [9]: Non-Toxic
- inhibition [10]: Active
- Activity [11]: inactive
